These results are taken from US20220183294A1, “PESTICIDALLY ACTIVE AZOLE AMIDE COMPOUNDS” (SYNGENTA CROP PROTECTION AG, priority 2019, published 2022).

As usually defined, the mortality is the share of the test organisms that died. High values mean a strong lethal effect, low ones a weak lethal effect. Broadly, the melting point is the temperature, or range, at which the solid turns liquid.

Molecules are shown by their SMILES.

In series [1] the test system is Chilo suppressalis (Striped rice stemborer). Briefly: Example B4: Chilo suppressalis (Striped rice stemborer), artificial diet. The series is classed as in vivo. To be noted: 144 h, application rate 200 ppm, L2 larvae, 6 days after infestation, read-out: control in at least one of the three categories (mortality, anti-feedant effect, or growth inhibition). The protocol:
Example B4: Chilo suppressalis (Striped rice stemborer) 24-well microtiter plates with artificial diet were treated with aqueous test solutions prepared from 10′000 ppm DMSO stock solutions by pipetting. After drying, the plates were infested with L2 larvae (6-8 per well). The samples were assessed for mortality, anti-feeding effect, and growth inhibition in comparison to untreated samples 6 days after infestation. Control of Chilo suppressalis by a test sample is given when at least one of the categories mortality, anti-feedant effect, and growth inhibition is higher than the untreated sample.

For series [2], the system named is Spodoptera littoralis (Egyptian cotton leaf worm). Put plainly: Example B9: Spodoptera littoralis (Egyptian cotton leaf worm), sprayed cotton leaf discs. The series is classed as in vivo. The following applies: foliar, 72 h, application rate 200 ppm, L1 larvae, 3 days after infestation, read-out: control in at least one of the three categories (mortality, anti-feedant effect, or growth inhibition). As for the experimental part: Example B9: Spodoptera littoralis (Egyptian cotton leaf worm)
Cotton leaf discs were placed onto agar in 24-well microtiter plates and sprayed with aqueous test solutions prepared from 10′000 ppm DMSO stock solutions. After drying the leaf discs were infested with five L1 larvae. The samples were assessed for mortality, anti-feeding effect, and growth inhibition in comparison to untreated samples 3 days after infestation. Control of Spodoptera littoralis by a test sample is given when at least one of the categories mortality, anti-feedant effect, and growth inhibition is higher than the untreated sample.

The subject of series [3] is Plutella xylostella (Diamond back moth). Put plainly: Example B5: Plutella xylostella (Diamond back moth), artificial diet, 24-well. Type of series: in vivo. The following applies: 192 h, application rate 200 ppm, eggs, 8 days after infestation, read-out: control in at least one of the two categories (mortality or growth inhibition). The protocol:
Example B5: Plutella xylostella (Diamond back moth)
24-well microtiter plates with artificial diet were treated with aqueous test solutions prepared from 10′000 ppm DMSO stock solutions by pipetting. After drying, Plutella eggs were pipetted through a plastic stencil onto a gel blotting paper and the plate was closed with it. The samples were assessed for mortality and growth inhibition in comparison to untreated samples 8 days after infestation.
(§1) The following compounds gave an effect of at least 80% control in at least one of the two categories (mortality or growth inhibition) at an application rate of 200 ppm: […]

Series [4] has as its system Plutella xylostella (Diamondback Moth). Put plainly: Example B13: Plutella xylostella (Diamondback Moth), artificial diet, 96-well. The series is classed as in vivo. To be noted: 216 h, application rate 500 ppm, eggs/L1 larvae, 9 days after infestation. The protocol:
Example B13: Plutella xylostella (Diamondback Moth)
96-well microtiter plates containing artificial diet were treated with aqueous test solutions, prepared from 10′000 ppm DMSO stock solutions, by a liquid handling robot. After drying, eggs (-30 per well) were infested onto a netted lid which was suspended above the diet. The eggs hatch and L1 larvae move down to the diet. The samples were assessed for mortality 9 days after infestation.
The following compounds gave an effect of at least 80% mortality at an application rate of 500 ppm: […]

The test system of series [5] is Euschistus heros (Neotropical Brown Stink Bug). Briefly: Example B2: Euschistus heros (Neotropical Brown Stink Bug), sprayed soybean leaves. The series is classed as in vivo. The following applies: 120 h, application rate 200 ppm, N2 nymphs, 5 days after infestation, read-out: effect in at least one of the two categories (mortality or growth inhibition). The protocol:
Example B2: Euschistus heros (Neotropical Brown Stink Bug)
Soybean leaves on agar in 24-well microtiter plates were sprayed with aqueous test solutions prepared from 10′000 ppm DMSO stock solutions. After drying the leaves were infested with N2 nymphs. The samples were assessed for mortality and growth inhibition in comparison to untreated samples 5 days after infestation.
The following compounds gave an effect of at least 80% in at least one of the two categories (mortality or growth inhibition) at an application rate of 200 ppm: […]

Series [6] deals with Diabrotica balteata (Corn root worm). Put plainly: Example B1: Diabrotica balteata (Corn root worm), sprayed maize sprouts. Type of series: in vivo. The following applies: 96 h, application rate 200 ppm, L2 larvae, 4 days after infestation, read-out: control in at least one of the two categories (mortality or growth inhibition). The protocol:
Example B1: Diabrotica balteata (Corn root worm)
Maize sprouts placed onto an agar layer in 24-well microtiter plates were treated with aqueous test solutions prepared from 10′000 ppm DMSO stock solutions by spraying. After drying, the plates were infested with L2 larvae (6 to 10 per well). The samples were assessed for mortality and growth inhibition in comparison to untreated samples 4 days after infestation.
as §1

On to `CC(NC(=O)c1cc(C(F)(F)F)cc(S(=O)(=O)C(F)(F)F)c1)c1ncnn1-c1ccc(OC(F)F)cn1` (stereo not drawn) [P28, N-[1-[2-[5-(difluoromethoxy)-2-pyridyl]-1,2,4-triazol-3-yl]ethyl]-3-(trifluoromethyl)-5-(trifluoromethylsulfonyl) benzamide], for which the percent control (mortality, anti-feedant effect or growth inhibition) at 200 ppm in series [1] and in series [2] was ≥ 80% each time. For the same molecule, the percent control (mortality or growth inhibition) at 200 ppm in series [3] was ≥ 80%. Also, the mortality at 500 ppm in series [4] was ≥ 80%.
The molecule `CC(NC(=O)c1cc(C(F)(F)F)nc(C2(C#N)CC2)c1)c1ncnn1-c1ccc(OCC(F)(F)F)cn1` (stereo not drawn) [P33, 2-(1-cyanocyclopropyl)-N-[1-[2-[5-(2,2,2-trifluoroethoxy)-2-pyridyl]-1,2,4-triazol-3-yl]ethyl]-6-(trifluoromethyl) pyridine-4-carboxamide] displayed a melting point of 170 to 175 °C.
In the case of `CC(NC(=O)c1cc(C2CC2C(F)(F)F)cc(C(F)(F)F)c1)c1ncnn1-c1ncc(OCC(F)F)cn1` (stereo not drawn) [P12], the percent control (mortality, anti-feedant effect or growth inhibition) at 200 ppm in series [1] and in series [2] was ≥ 80% throughout. Further, in series [5], the percent effect (mortality or growth inhibition) at 200 ppm was ≥ 80%. Moreover, the percent control (mortality or growth inhibition) at 200 ppm in series [6] and in series [3] was ≥ 80% each time.
Turning to `CC(NC(=O)c1cc(C(F)(F)F)cc(C(F)(F)C2CC2)c1)c1ncnn1-c1ccc(OCC(F)F)cn1` (stereo not drawn) [P36, 3-[cyclopropyl(difluoro)methyl]-N-[1-[2-[5-(2,2-difluoroethoxy)-2-pyridyl]-1,2,4-triazol-3-yl]ethyl]-5-(trifluoromethyl) benzamide], the melting point was in the range of 105 to 110 °C.
Consider `CC(NC(=O)c1cc(C(F)(F)F)cc(S(=O)(=O)C(F)(F)F)c1)c1ncnn1-c1ncc(OCC(F)(F)F)cn1` (stereo not drawn) [P29, N-[1-[2-[5-(2,2,2-trifluoroethoxy)pyrimidin-2-yl]-1,2,4-triazol-3-yl]ethyl]-3-(trifluoromethyl)-5-(trifluoromethylsulfonyl) benzamide], for which the percent control (mortality, anti-feedant effect or growth inhibition) at 200 ppm in series [1] is ≥ 80%. Further, the percent control (mortality or growth inhibition) at 200 ppm in series [3] was ≥ 80%. In addition, the mortality at 500 ppm in series [4] was ≥ 80%.
Turning to `CC(NC(=O)c1cc(C(F)(F)F)nc(C2(C#N)CC2)c1)c1ncnn1-c1ncc(OC(F)F)cn1` (stereo not drawn) [P8, 2-(1-cyanocyclopropyl)-N-[1-[2-[5-(difluoromethoxy)pyrimidin-2-yl]-1,2,4-triazol-3-yl]ethyl]-6-(trifluoromethyl) pyridine-4-carboxamide], the percent control (mortality, anti-feedant effect or growth inhibition) at 200 ppm in series [1] and in series [2] was ≥ 80% in each case. The percent control (mortality or growth inhibition) at 200 ppm in series [6] and in series [3] was ≥ 80% throughout.
Consider `CC(NC(=O)c1cc(C2CC2)nc(C(F)(F)F)c1)c1ncnn1-c1ncc(OC(F)F)cn1` (stereo not drawn) [P9, 2-cyclopropyl-N-[1-[2-[5-(difluoromethoxy)pyrimidin-2-yl]-1,2,4-triazol-3-yl]ethyl]-6-(trifluoromethyl) pyridine-4-carboxamide], for which the percent control (mortality, anti-feedant effect or growth inhibition) at 200 ppm in series [1] and in series [2] was ≥ 80% throughout. In addition, the percent effect (mortality or growth inhibition) at 200 ppm in series [5] is ≥ 80%. The percent control (mortality or growth inhibition) at 200 ppm in series [6] and in series [3] was ≥ 80% throughout.
The molecule `CC(NC(=O)c1cc(C(F)(F)F)cc(C2(C#N)CC2)c1)c1ncnn1-c1ccc(OCC(F)(F)F)cn1` (stereo not drawn) [P34, 3-(1-cyanocyclopropyl)-N-[1-[2-[5-(2,2,2-trifluoroethoxy)-2-pyridyl]-1,2,4-triazol-3-yl]ethyl]-5-(trifluoromethyl) benzamide] displayed a melting point of 70 to 75 °C.
Consider `CC(NC(=O)c1cc(C(F)(F)F)cc(C(F)(F)C2CC2)c1)c1ncnn1-c1ncc(OCC(F)F)cn1` (stereo not drawn) [P11, 3-[cyclopropyl(difluoro)methyl]-N-[1-[2-[5-(2,2-difluoroethoxy)pyrimidin-2-yl]-1,2,4-triazol-3-yl]ethyl]-5-(trifluoromethyl) benzamide], for which the percent control (mortality, anti-feedant effect or growth inhibition) at 200 ppm in series [1] and in series [2] was ≥ 80% throughout. Further, the percent control (mortality or growth inhibition) at 200 ppm in series [6] and in series [3] was ≥ 80% each time.
Turning to `CC(NC(=O)c1cc(C(F)(F)F)cc(S(=O)(=O)C(F)(F)F)c1)c1ncnn1-c1ncc(OC(F)F)cn1` (stereo not drawn) [P27, N-[1-[2-[5-(difluoromethoxy)pyrimidin-2-yl]-1,2,4-triazol-3-yl]ethyl]-3-(trifluoromethyl)-5-(trifluoromethylsulfonyl) benzamide], the percent control (mortality, anti-feedant effect or growth inhibition) at 200 ppm in series [1] and in series [2] was ≥ 80% each time. Besides, in series [3], the percent control (mortality or growth inhibition) at 200 ppm is ≥ 80%. In series [4], the mortality at 500 ppm is ≥ 80%.
As to `CC(NC(=O)c1cc(C2CC2)cc(C(F)(F)F)c1)c1ncnn1-c1ccc(C#N)cn1` (stereo not drawn) [P14, N-[1-[2-(5-cyano-2-pyridyl)-1,2,4-triazol-3-yl]ethyl]-3-cyclopropyl-5-(trifluoromethyl)benzamide], the percent control (mortality, anti-feedant effect or growth inhibition) at 200 ppm in series [1] and in series [2] was ≥ 80% each time. Besides, the percent control (mortality or growth inhibition) at 200 ppm in series [6] and in series [3] was ≥ 80% in each case. The mortality at 500 ppm in series [4] was ≥ 80%.
On to `CC(NC(=O)c1cc(C(F)(F)F)cc(C(F)(F)C2CC2)c1)c1ncnn1-c1ccc(OCC(F)(F)F)cn1` (stereo not drawn) [P35, 3-[cyclopropyl(difluoro)methyl]-N-[1-[2-[5-(2,2,2-trifluoroethoxy)-2-pyridyl]-1,2,4-triazol-3-yl]ethyl]-5-(trifluoromethyl) benzamide], for which the melting point fell in the range of 48 to 52 °C.
Turning to `CC(NC(=O)c1cc(C(F)(F)F)nc(C2(C#N)CC2)c1)c1ncnn1-c1ccc(C#N)cn1` (stereo not drawn) [P3, 2-(1-cyanocyclopropyl)-N-[1-[2-(5-cyano-2-pyridyl)-1,2,4-triazol-3-yl]ethyl]-6-(trifluoromethyl)pyridine-4-carboxamide], the percent control (mortality, anti-feedant effect or growth inhibition) at 200 ppm in series [1] and in series [2] was ≥ 80% in each case. In addition, the percent control (mortality or growth inhibition) at 200 ppm in series [6] and in series [3] was ≥ 80% each time. In addition, the mortality at 500 ppm in series [4] is ≥ 80%.
As for `CC(NC(=O)c1cc(C2CC2)cc(C(F)(F)F)c1)c1ncnn1-c1ncc(OCC(F)F)cn1` (stereo not drawn) [P23, 3-cyclopropyl-N-[1-[2-[5-(2,2-difluoroethoxy)pyrimidin-2-yl]-1,2,4-triazol-3-yl]ethyl]-5-(trifluoromethyl) benzamide], the percent control (mortality, anti-feedant effect or growth inhibition) at 200 ppm in series [1] and in series [2] was ≥ 80% throughout. Moreover, the percent control (mortality or growth inhibition) at 200 ppm in series [6] and in series [3] was ≥ 80% throughout.
In turn, `CC(NC(=O)c1cc(C(F)(F)F)cc(S(=O)(=O)C(F)(F)F)c1)c1ncnn1-c1ccc(OCC(F)(F)F)cn1` (stereo not drawn) [P32, N-[1-[2-[5-(2,2,2-trifluoroethoxy)-2-pyridyl]-1,2,4-triazol-3-yl]ethyl]-3-(trifluoromethyl)-5-(trifluoromethylsulfonyl) benzamide] yielded a melting point of 125 to 130 °C.
